# Experimental data as given in US20060110450A1, “Bilayer tablet of telmisartan and amlodipine” (Boehringer Ingelheim International GmbH, priority 2004, published 2006).
# Experiments:
# [1] = Stability of amlodipine in contact with the basic telmisartan formulation; type: physicochemical; details: direct contact with excipients to be used in a telmisartan formulation (basic components, e.g. sodium hydroxide or meglumine)
# Excerpt: There are various types of fixed dose combination dosage forms conceivable but it cannot be predicted which of these dosage forms best combines product stability, pharmacological efficacy, and reliable manufacture. Generally, combinations of two active pharmaceutical ingredients could be formulated as oral solid or oral liquid dosage forms such as tablets, capsules, coated or sugar-coated tablets, granules, oral solutions, emulsions or suspensions, syrups, and lozenges. In view of experiences with liquid dosage forms of telmisartan, oral liquid dosage forms are not considered a preferred embodiment according to the present invention. An instant release oral solid dosage form containing two drugs could be prepared by either making a powder mixture or a co-granulate of the two active ingredients with the necessary excipients. However, for a combination of telmisartan and amlodipine, this approach turns out not to result in a dosage form with sufficient product stability. […] The ester bonds in the amlodipine molecule appear to be subject to hydrolysis when exposed to an alkaline milieu. […]
# [2] = physiological pH range of the gastrointestinal tract between pH 1 to 7; cited from earlier work
Compound,stability of amlodipine [1],solubility in aqueous systems [2]
"3-ethyl-5-methyl-2-(2-aminoethoxymethyl)-4-(2-chlorophenyl)-1,4-dihydro-6-methyl-3,5-pyridinedicarboxylate [amlodipine]",not stable enough,–
"CCCc1nc2c(C)cc(-c3nc4ccccc4n3C)cc2n1Cc1ccc(-c2ccccc2C(=O)O)cc1 [Telmisartan, 4′-[2-n-propyl-4-methyl-6-(1-methylbenzimidazol-2-yl)benzimidazol-1-ylmethyl]biphenyl-2-carboxylic acid]",–,very poor solubility
